Structures can show the parent of a compound that is named as a salt.
Assays:
[1] = system: Intracellular cAMP levels; test: Measurement of intracellular cAMP levels in differentiated L6 cells; assay type: cell-based; settings: Rattus norvegicus, L6, 0.25 h, compound 1×10^−5 M, 15 min, read-out: Biological example 2: intracellular cAMP levels, activity compared to that of isoproterenol
Protocol: (§1) L6-myoblasts were grown in Dulbecco's Modified Eagle's Medium (DMEM) containing 1 g/L glucose supplemented with 10% fetal bovine serum, 2 mM L-Glutamine, 50 U/mL penicillin, 50 μg/mL streptomycin and 10 mM HEPES. Cells were plated at 1×10^5 cells per mL in 24-well plates. After reaching 90% confluence the cells were grown in medium containing 2% FBS for 7 days where upon cells differentiated into myotubes.
Differentiated cells were serum-starved overnight and stimulated with an agonist, final concentration 1×10^−5 M, for 15 min in stimulation buffer (HBSS supplemented with 1% BSA, 5 mM HEPES and 1 mM IBMX, pH 7.4). The medium was aspirated and 100 μL of 95% EtOH was added to each well of the 24-well plate and cells were kept at −20° C. overnight. The EtOH was allowed to evaporate and 500 μL of lysis buffer (1% BSA, 5 mM HEPES and 0.3% Tween-20, pH 7.4) was added to each well. The plate was kept at −80° C. for 30 min and then at −20° C. until the day of detection when the samples were thawed. Intracellular cAMP levels were detected using an alpha screen cAMP kit (6760635D from Perkin Elmer). The activity for each compound is compared to that of isoproterenol.

L6-myotubes = test: Glucose uptake (3H-2-deoxyglucose) in differentiated L6-myotubes; assay type: cell-based; settings: compound 1×10^−5 M, read-out: Biological example 1: glucose uptake, activity compared to that of isoproterenol
Protocol: as §1
Differentiated L6-myotubes were serum-starved overnight in medium containing 0.5% fatty-acid free BSA and stimulated with an agonist, with a final concentration of 1×10^−5 M. After 1 h 40 min the cells were washed with warm glucose free medium or PBS twice and another portion of agonist was added to the glucose free medium. After 20 min the cells were exposed to 50 nM ^3H-2-deoxyglucose for 10 min before washed with ice cold glucose free medium or PBS three times and lysed with 0.2 M NaOH, 400 μL/well, for 1 h at 60° C. The cell lysate was mixed with 4 mL scintillation buffer (Emulsifier Safe, Perkin Elmer) and the radioactivity was detected in a β-counter (Tri-Carb 4810TR, Perkin Elmer). The activity for each compound is compared to that of isoproterenol.

## CS(=O)(=O)N[C@H]1CC[C@@H](C[C@@H]2CC[C@H]([C@H](O)c3cccc(F)c3)N2)CC1 [Example 38, N-((1R,4s)-4-(((2S,5R)-5-((R)-(3-Fluorophenyl)(hydroxy)methyl)pyrrolidin-2-yl)methyl)cyclohexyl)methanesulfonamide hydrochloride]
[1]
  Emax at 10 µM: < 25%
L6-myotubes
  Emax at 10 µM: > 75%

## CS(=O)(=O)N(Cc1ccccc1)[C@H]1CC[C@H](C[C@@H]2CC[C@H]([C@H](O)c3cccc(F)c3)N2)CC1 [Example 45, N-Benzyl-N-((1S,4r)-4-(((2S,5R)-5-((R)-(3-fluorophenyl)(hydroxy) -methyl)pyrrolidin-2-yl)methyl)cyclohexyl)methanesulfonamide hydrochloride]
[1]
  Emax at 10 µM: < 25%
L6-myotubes
  Emax at 10 µM: < 25%

## COc1ccc(C[C@@H]2CC[C@H]([C@@H](O)c3cncc(F)c3)N2)cc1 [Example 22, (S)-(5-Fluoropyridin-3-yl)((2R,5S)-5-(4-methoxybenzyl)pyrrolidin-2-yl)methanol dihydrochloride]
[1]
  Emax at 10 µM: < 25%
L6-myotubes
  Emax at 10 µM: > 75%

## COc1ccc(C[C@H]2CC[C@H]([C@@H](O)c3cncc(F)c3)N2)cc1 [Example 24, (S)-(5-Fluoropyridin-3-yl)((2R,5R)-5-(4-methoxybenzyl)pyrrolidin-2-yl)methanol dihydrochloride]
[1]
  Emax at 10 µM: < 25%
L6-myotubes
  Emax at 10 µM: > 75%

## CC(=O)N(Cc1ccccc1)[C@H]1CC[C@@H](C[C@@H]2CC[C@H]([C@@H](O)c3cccc(F)c3)N2)CC1 [Example 35, N-Benzyl-N-((1R,4s)-4-(((2S,5R)-5-((S)-(3-fluorophenyl)(hydroxy) -methyl)pyrrolidin-2-yl)methyl)cyclohexyl)acetamide hydrochloride]
[1]
  Emax at 10 µM: < 25%
L6-myotubes
  Emax at 10 µM: 25 to 50%

## CC(=O)N[C@H]1CC[C@H](C[C@@H]2CC[C@H]([C@@H](O)c3cccc(F)c3)N2)CC1 [Example 44, N-((1S,4r)-4-(((2S,5R)-5-((S)-(3-Fluorophenyl)(hydroxy)methyl)pyrrolidin-2-yl)methyl)cyclohexyl)acetamide hydrochloride]
[1]
  Emax at 10 µM: < 25%
L6-myotubes
  Emax at 10 µM: 50 to 75%

## COc1ccc(C[C@@]2(C)CC[C@H]([C@@H](O)c3cccc(F)c3)N2)cc1 [Example 20, (S)-(3-Fluorophenyl)((2R,5R)-5-(4-methoxybenzyl)-5-methylpyrrolidin-2-yl)methanol hydrochloride]
[1]
  Emax at 10 µM: < 25%
L6-myotubes
  Emax at 10 µM: > 75%

## O[C@H](c1cccc(F)c1)[C@H]1CC[C@H](Cc2ccc(Cl)cc2)N1 [Example 27, (R)-((2R,5R)-5-(4-Chlorobenzyl)pyrrolidin-2-yl)(3-fluorophenyl)methanol hydrochloride]
[1]
  Emax at 10 µM: < 25%
L6-myotubes
  Emax at 10 µM: > 75%

## O[C@@H](c1cncc(F)c1)[C@H]1CC[C@H](Cc2ccc(Cl)cc2)N1 [Example 32, (S)-(2R,5R)-5-(4-Chlorobenzyl)pyrrolidin-2-yl)(5-fluoropyridin-3-yl) -methanol dihydrochloride]
[1]
  Emax at 10 µM: < 25%
L6-myotubes
  Emax at 10 µM: > 75%

## CO[C@H]1CC[C@H](C[C@H]2CC[C@H]([C@@H](O)c3ccccc3F)N2)CC1 [Example 8, (S)-(2-Fluorophenyl)((2R,5R)-5-(((1r,4S)-4-methoxycyclohexyl)methyl) -pyrrolidin-2-yl)methanol hydrochloride]
[1]
  Emax at 10 µM: < 25%
L6-myotubes
  Emax at 10 µM: 50 to 75%

## COc1ccc(C[C@H]2CC[C@H]([C@H](O)c3cccc(F)c3)N2)cc1 [Example 15, (R)-(3-Fluorophenyl)((2R,5R)-5-(4-methoxybenzyl)pyrrolidin-2-yl)methanol]
[1]
  Emax at 10 µM: < 25%
L6-myotubes
  Emax at 10 µM: > 75%

## CC(=O)N[C@H]1CC[C@@H](C[C@@H]2CC[C@H]([C@@H](O)c3cccc(F)c3)N2)CC1 [Example 36, N-((1R,4s)-4-(((2S,5R)-5-((S)-(3-Fluorophenyl)(hydroxy)methyl)pyrrolidin-2-yl)methyl)cyclohexyl)acetamide]
[1]
  Emax at 10 µM: < 25%
L6-myotubes
  Emax at 10 µM: 50 to 75%
